# What was measured:
# [1] = system: Rev-dependent ligase; type: biochemical
# Method: Ligation assays. Ligation assays were performed as described hereinabove.
# [2] = system: 3MeX2P6; assay: Effector specificity of 3MeX2P6 in vitro and in vivo
# Method: In vitro splicing assays. The assays were preformed by heating the RNA (500 nM) in H2O to 70° C. for 3 min then transferring to ice for 1 min. […] GTP (50 μM) was added to the remaining reaction (5 μl total volume) to start the splicing reaction. The reaction was incubated at 37° C. for 30 min and then terminated with stop dye (5 μl). The reactions were heated to 70° C. for 3 min and 5 μl was analyzed on an 8% denaturing polyacrylamide gel. The gel was dried, exposed to a phosphor screen and analyzed using a Molecular Dynamics Phosphorimager (Sunnyvale, Calif.). In vivo growth curves.
# [3] = system: Cyt 18-dependent population; assay: Specificity of activation of Cyt18-dependent ribozymes by proteins; type: biochemical
# Method: (§1) Protein inactivation. Standard ligation assays were performed as described above, but in the presence of protein samples that had been pre-treated as follows. Cyt18 protein was denatured by heating for 10 min at 70° C. or by the addition of 6% SDS (0.7% SDS in ligation reaction). Lysozyme was heated 10 min at 100° C. or incubated 10 min at room temperature in the presence of 2 mM DTT (0.3 mM DTT final reaction) without inactivating the protein. The protein was successfully inactivated by heating for […] at 70° C. in the presence of 2 mM DTT. Ligation reactions were performed with 1.3 μM protein in 15 μl reactions incubated 5 min at 25° C.
# [4] = biological target: T1, lysozyme (Gallus gallus, UniProt P00698); assay: Competition assay, competitor RNA against lysozyme activation of lys11-2; type: biochemical, hen; conditions: 3 μM competitor RNA, 2 μM lysozyme
# Method: Competition assays. Ligation assays were performed as described above, using 10 pmol of [^32P]-body-labeled ribozyme (cyt7-2 or lys11-2; […]) and 20 pmol effector oligonucleotide (2 μM). The denatured and annealed RNA mixture was combined with ligation buffer, 20 pmol protein (Cyt18, lysozyme, or water in the case of (−) protein samples; 2 μM), and 30 pmol of denatured and annealed competitor RNA (3 μM). Competitor RNAs are as follows:
# Where N=(A, G, C, U), and tRNA (from Yeast; Gibco BRL, Gaithersburg, Md.). […] Cyt18 reactions were incubated 5 min at 25° C. and lysozyme reactions were incubated 10 min. Reactions were terminated by the addition of 45 μl of SDS/urea stop mix (75 mM EDTA, 80% formamide, saturated urea, saturated SDS, 0.05% bromophenol blue, 0.05% xylene cyanol) and analyzed on 8% polyacrylamide gels containing 0.1% SDS as above.
# [5] = biological target: T1, lysozyme; assay: Filter binding assay with lysozyme; parameters: species or system hen; conditions: read-out: Kd of anti-lysozyme aptamer
# Method: Binding assays. Binding assays were performed in triplicate by combining I pmol of [^32P]-body-labeled RNA, 20 pmol 18.90a, and varying amounts of target protein (1 pmol to 5 nmol) in 50 μl of ligation buffer. After incubation at room temperature for 30 min, the mixture was drawn under vacuum through a series of nitrocellulose and nylon filters and washed with 150 μl of ligation buffer. The ratio of protein-bound RNA versus free RNA was determined by analyzing the counts retained on the nitrocellulose filter versus the counts on the nylon filter.
# [6] = system: C600ThyA::Kan^R cells
# Method: In vivo growth curves. Cells grown overnight in LB were diluted 1:100 in MM containing either theophylline, caffeine, 3-methylxanthine or no effector, and analyzed on a Microbiology Workstation Bioscreen C (Labsystems, Inc., Franklin, Mass.).
# [7] = system: lysozyme-dependent clones; assay: Specificity of activation of lysozyme-dependent ribozymes by proteins; type: biochemical; conditions: lysozyme both reduced and denatured
# Method: as §1
compound,measurement,setting,value
N=C(N)NCCC[C@H](N)C(=O)O [arginine],activation of the Rev-dependent ligase,[1],Activation was observed only with HIV Tat peptide
Cn1c(=O)[nH]c2nc[nH]c2c1=O [1-methylxanthine],responsiveness of 3MeX2P6 variants to effector,[2],nor were they responsive
"Cn1c(=O)c2[nH]c(=O)[nH]c2n(C)c1=O [1,3-dimethyl urilic acid]",responsiveness of 3MeX2P6 variants to effector,[2],nor were they responsive
O=c1[nH]c(=O)c2[nH]cnc2[nH]1 [xanthine],responsiveness of 3MeX2P6 variants to effector,[2],nor were they responsive
E. coli tryptophanyl tRNA synthetase: non-cognate protein,activation of Cyt18-dependent ribozyme by non-cognate protein,[3],No activation
"cl: high affinity anti-lysozyme aptamer, SEQ ID NO:13 (GCGACTGGACATCACGAG; chemistry not given here)",reduction of lysozyme activation of lys11-2 by competitor RNA,[4],reduced activation to background levels
same,Kd,[5],31 nM
Cn1cnc2[nH]c(=O)[nH]c(=O)c21 [7-methylxanthine],responsiveness of 3MeX2P6 variants to effector,[2],nor were they responsive
Cn1c(=O)c2c(ncn2C)n(C)c1=O [caffeine],activation of growth of cells with td gene divided by Th2P6 by effector,[6],not activated
same,responsiveness of 3MeX2P6 variants to effector,[2],nor were they responsive
Cn1c(=O)[nH]c(=O)c2[nH]cnc21 [3-methylxanthine],responsiveness of 3MeX2P6 variants to effector,[2],responsive
Cn1cnc2c1c(=O)[nH]c(=O)n2C [theobromine],responsiveness of 3MeX2P6 variants to effector,[2],nor were they responsive
lysozyme: hen egg white lysozyme,activation of Cyt18-dependent ribozyme by non-cognate protein,[3],No activation
same,activation of catalysis by inactivated lysozyme,[7],unable to activate
MS2 coat protein: non-cognate protein,activation of Cyt18-dependent ribozyme by non-cognate protein,[3],No activation
O=c1[nH]cnc2nc[nH]c12 [hypoxanthine],responsiveness of 3MeX2P6 variants to effector,[2],nor were they responsive
Cn1c(=O)c2[nH]cnc2n(C)c1=O [theophylline],concentration causing a decrease in growth of cells containing the parental td intron (toxic to cells),[6]; E. coli,greater than 0.5 mM
same,concentration that progressively decreases growth of cells with theophylline-dependent introns,[6]; E. coli,above 2 mM
same,responsiveness of 3MeX2P6 variants to effector,[2],no longer responsive

# From patent US20040126882A1, “Regulatable, catalytically active nucleic acids” (priority 2000, published 2004)
